# Experimental data reported in patent publication US20120328526A1, “Modulation of Nad+ Activity in Neuropathophysiological Conditions and Uses Thereof” (University of Maryland, Baltimore, priority 2011, published 2012).
# “Also recorded” adds a separate entry of the source.
# Tests used:
# Type in all cases: in vivo, mouse
# [1] = test system: traumatic brain injury mice; assay: Open field test (anti-clockwise/clockwise rotations) after traumatic brain injury; settings: NMN 500 mg/kg I.P. at 1 hour post-injury; 7 days post-injury; listed as NMN
# Description: (§1) FIGS. 9A-9B show traumatic brain injury-induced deficits in sensorimotor function and cognition are ameliorated by nicotinamide mononucleotide treatment. FIG. 9A: Fine motor coordination deficits were quantified using a beam walk test in C57Bl/6 mice subjected to moderate-level traumatic brain injury and treated with nicotinamide mononucleotide (500 mg/kg, I.P.) or equal volume of vehicle at 1 hour post-injury. Hindlimb foot placement was recorded up to 7 days post-injury and the number of foot faults recorded from 50 steps. Naïve C57Bl/6 mice served as a control group. […] Analysis was by repeated measures one-way ANOVA, followed by post-hoc adjustments using Student-Newman-Keuls test. Mean ±S.E.M.; n=5/group. FIG. 9B: Cognitive performance was analyzed by measuring the number of anti-clockwise and clockwise rotations of traumatic brain injury mice in an open field test performed at 7 days post-injury.
# The effect of nicotinamide mononucleotide on traumatic brain injury-induced changes in fine motor coordination examined using a beam walking task in which mice were trained to cross an elevated narrow wooden beam. The mouse was placed on the left end of the beam and the number of foot faults for the right hind limb was recorded over 50 steps on the beam. […] Their activity was measured and recorded using the Any-maze video tracking system. […]
# [2] = Core temperature and blood pressure after nicotinamide mononucleotide administration in post-ischemic animals
# Excerpt: For quantification of uninjured cells within the CA1 sector of the hippocampus an unbiased stereological technique was used (27). […] This is in accord with the degree of hippocampal injury reported in other models of mouse forebrain ischemia. There were no seizure incidents during the first hours of recovery however there was about 10% mortality in the 5 days recovery group. […] To exclude the possibility that the protection was due to hypothermia, the treated animals' core temperature was monitored for 1 h after the nicotinamide mononucleotide administration. The body temperature was stable at 37.5° C. Similarly there was no effect of nicotinamide mononucleotide administration on the animals' blood pressure that was maintained between 80 and 100 mmHg after the compound injection.
# [3] = test system: C57Bl/6 mice subjected to moderate-level traumatic brain injury; assay: Beam walk test after controlled cortical impact traumatic brain injury; settings: NMN 500 mg/kg I.P. at 1 hour post-injury, 7 days post-injury, p<0.001
# Description: as §1
# In a clinically relevant model of traumatic brain injury, controlled cortical impact (CCI) (Fox et al. 1998), was induced in C57Bl/6 mice and these animals were followed for up to 1 year post-injury to assess post-traumatic tissue loss and neurodegeneration. […] One group was evaluated for changes between 24 h and 3 months post-injury; a second group was used to compare changes in TBI-induced lesion volume between 6 and 12 months. […]
# tissue NAD(H) levels = assay: Tissue NAD(H) levels in post-ischemic brain regions (enzymatic cycling assay); settings: 10 min forebrain ischemia, NMN intraperitoneally at 1 h of reperfusion, measured at 24 h of recovery
# Description: FIGS. 3A-3B show the effect of forebrain ischemia and nicotinamide mononucleotide administration on tissue NAD(H) levels. Mice were subjected to 10 min transient forebrain ischemia and allowed to recover for 24 h. After decapitation their brains were removed, the designated regions dissected and frozen in liquid nitrogen. One group of animals received nicotinamide mononucleotide at 1 hour of recovery. The NAD content was determined following perchloric acid extraction and utilized a coupled fluorometric cycling enzymatic assay (FIG. 3A). There is significant loss of NAD^+ in striatum, CA1, and DG regions. *p<0.05. […] Black: sham; white: ischemia; gray: NMN treatment. FIG. 3B: Effect of ischemia on CD38 activity. […] The CD38 enzyme activity was determined using 1-etheno-NAD that, when hydrolyzed by CD38, generates a fluorescent product. The rate of fluorescence increase corresponds to the CD38 enzyme activity. […]
# The tissue NAD(H) levels were determined utilizing an enzymatic cycling assay. […] The parietal cortex, striatum, the CA1 sector and CA3-DG regions of the hippocampus were dissected and the tissue NAD(H) levels were determined following perchloric acid extraction. […] Nicotinamide mononucleotide was administrated intraperitoneally at 1 h of reperfusion and the tissue NAD(H) content was determined at 24 h of recovery.
structure (smiles),measurement,setting,value
NC(=O)c1ccc[n+]([C@@H]2O[C@H](COP(=O)([O-])O)[C@@H](O)[C@H]2O)c1 [nicotinamide mononucleotide],cognitive performance: anti-clockwise rotations in open field test,[1],virtually indistinguishable from the naïve mice; also recorded: reduced anti-clockwise rotations
same,effect on animals' blood pressure,[2]; after the compound injection (500 mg/kg),no effect
same,body (core) temperature after administration,[2]; monitored for 1 h after NMN administration (500 mg/kg),37.5 °C
same,fine motor coordination (beam walk foot faults) vs vehicle-treated TBI mice,[3],significant improvement in motor performance
same,fine motor coordination (beam walk foot faults) vs vehicle-treated TBI mice,[3]; listed as NMN,significantly reduced deficits in fine motor coordination
same,post-ischemic brain tissue NAD(H) levels,tissue NAD(H) levels,reversed; also recorded: complete recovery of brain tissue NAD(H) levels
same,post-ischemic brain tissue NAD(H) levels,tissue NAD(H) levels; listed as NMN,prevented the post-ischemic NAD catabolism
